ChEMBL document CHEMBL1155015, “Synthesis and cytotoxic activities of usnic acid derivatives” (Bioorg Med Chem, 2008)

Assays:
L1210 [1] = experiment: Cytotoxicity against mouse L1210 ATCC CCL 219 cells after 48 hrs by MTT assay; format: functional, cell-based; details: L1210, 48 h
CHO [2] = experiment: Cytotoxicity against CHO cells after 48 hrs by MTT assay; format: cell-based; details: Cricetulus griseus
K562 = experiment: Cytotoxicity against human K562 ATCC CCL 243 cells after 72 hrs by MTT assay; format: functional, cell-based; details: K562, 72 h
U-251 = experiment: Cytotoxicity against human U251 RCB 0641 cells after 72 hrs by MTT assay; format: functional, cell-based; details: U-251, 72 h
MCF7 = experiment: Cytotoxicity against human MCF7 ATCC HTB 22 cells after 72 hrs by MTT assay; format: functional, cell-based; details: MCF7, 72 h
CHO [3] = experiment: Cytotoxicity against polyamine transport-deficient mutant CHO cells after 48 hrs by MTT assay; format: ADME, cell-based; details: Cricetulus griseus
L1210 [4] = experiment: Induction of apoptosis in mouse L1210 ATCC CCL 219 cells assessed as increase in caspase 3 activity at 4.5 uM after 48 hrs relative to control; format: functional
L1210 [5] = experiment: Induction of apoptosis in mouse L1210 ATCC CCL 219 cells assessed as increase in caspase 3 activity at 3 uM after 48 hrs relative to control; format: functional
[6] = Cytotoxicity against mouse 3LL CRL 1642 cells after 48 hrs by MTT assay; format: functional, cell-based
L1210 [7] = experiment: Induction of apoptosis in mouse L1210 ATCC CCL 219 cells assessed as fragmented cell nuclei at 4.5 uM after 48 hrs by Hoechst 33342 staining; format: functional
L1210 [8] = experiment: Induction of apoptosis in mouse L1210 ATCC CCL 219 cells assessed as fragmented cell nuclei at 6 uM after 48 hrs by Hoechst 33342 staining; format: functional
L1210 [9] = experiment: Induction of apoptosis in mouse L1210 ATCC CCL 219 cells assessed as fragmented cell nuclei at 3 uM after 24 hrs by Hoechst 33342 staining; format: functional
L1210 [10] = experiment: Induction of apoptosis in mouse L1210 ATCC CCL 219 cells assessed as fragmented cell nuclei at 4.5 uM after 24 hrs by Hoechst 33342 staining; format: functional
L1210 [11] = experiment: Induction of apoptosis in mouse L1210 ATCC CCL 219 cells assessed as increase in caspase 3 activity at 6 uM after 48 hrs relative to control; format: functional
DU-145 = experiment: Cytotoxicity against human DU145 ATCC HTB 81 cells after 72 hrs by MTT assay; format: functional, cell-based; details: DU-145, 72 h
L1210 [12] = experiment: Induction of apoptosis in mouse L1210 ATCC CCL 219 cells assessed as fragmented cell nuclei at 6 uM after 24 hrs by Hoechst 33342 staining; format: functional
L1210 [13] = experiment: Induction of apoptosis in mouse L1210 ATCC CCL 219 cells assessed as fragmented cell nuclei at 3 uM after 48 hrs by Hoechst 33342 staining; format: functional
L1210 [14] = experiment: Induction of apoptosis in mouse L1210 ATCC CCL 219 cells assessed as fragmented cell nuclei at 26 uM after 48 hrs by Hoechst 33342 staining; format: functional
L1210 [15] = experiment: Induction of apoptosis in mouse L1210 ATCC CCL 219 cells assessed as increase in caspase 3 activity at 35 uM after 48 hrs relative to control; format: functional
L1210 [16] = experiment: Induction of apoptosis in mouse L1210 ATCC CCL 219 cells assessed as fragmented cell nuclei at 17 uM after 48 hrs by Hoechst 33342 staining; format: functional
L1210 [17] = experiment: Induction of apoptosis in mouse L1210 ATCC CCL 219 cells assessed as fragmented cell nuclei at 17 uM after 24 hrs by Hoechst 33342 staining; format: functional
L1210 [18] = experiment: Induction of apoptosis in mouse L1210 ATCC CCL 219 cells assessed as increase in caspase 3 activity at 26 uM after 48 hrs relative to control; format: functional
L1210 [19] = experiment: Induction of apoptosis in mouse L1210 ATCC CCL 219 cells assessed as fragmented cell nuclei at 35 uM after 24 hrs by Hoechst 33342 staining; format: functional
L1210 [20] = experiment: Induction of apoptosis in mouse L1210 ATCC CCL 219 cells assessed as increase in caspase 3 activity at 17 uM after 48 hrs relative to control; format: functional
L1210 [21] = experiment: Induction of apoptosis in mouse L1210 ATCC CCL 219 cells assessed as fragmented cell nuclei at 26 uM after 24 hrs by Hoechst 33342 staining; format: functional
L1210 [22] = experiment: Induction of apoptosis in mouse L1210 ATCC CCL 219 cells assessed as fragmented cell nuclei at 35 uM after 48 hrs by Hoechst 33342 staining; format: functional
L1210 [23] = experiment: Induction of apoptosis in mouse L1210 ATCC CCL 219 cells assessed as increase in caspase 3 activity at 1.7 uM after 48 hrs relative to control; format: functional
L1210 [24] = experiment: Induction of apoptosis in mouse L1210 ATCC CCL 219 cells assessed as fragmented cell nuclei at 1.7 uM after 48 hrs by Hoechst 33342 staining; format: functional
L1210 [25] = experiment: Induction of apoptosis in mouse L1210 ATCC CCL 219 cells assessed as fragmented cell nuclei at 1.7 uM after 24 hrs by Hoechst 33342 staining; format: functional

SMILES | IC50 (L1210 [1]) | IC50 (CHO [2]) | IC50 (K562) | IC50 (U-251) | IC50 (MCF7) | IC50 (CHO [3]) | further results
NCCCCCCCCN | > 100 µM | > 100 µM |  |  |  |  | 
CCOC(=O)[C@H](CC(C)C)N/C(C)=C1\C(=O)C=C2Oc3c(C(C)=O)c(O)c(C)c(O)c3[C@@]2(C)C1=O | 48.9 µM |  | 60.7 µM | > 100 µM | > 100 µM |  | 
CCOC(=O)[C@H](Cc1ccccc1)N/C(C)=C1\C(=O)C=C2Oc3c(C(C)=O)c(O)c(C)c(O)c3[C@@]2(C)C1=O | 74.4 µM |  | > 100 µM | > 100 µM | > 100 µM |  | 
CC(=O)c1c(O)c(C)c(O)c2c1OC1=CC(=O)/C(=C(/C)NCCCCN)C(=O)[C@@]12C | 12 µM | 10.7 µM |  |  |  | 12 µM | 
CC(=O)c1c(O)c(C)c(O)c2c1OC1=CC(=O)/C(=C(/C)NCCCNCCCCNCCCN)C(=O)[C@@]12C | 15.3 µM | 48 µM |  | 4.4 µM | 11.2 µM | 59 µM | 
CC(=O)c1c(O)c(C)c(O)c2c1OC1=CC(=O)/C(=C(/C)NCCCCO)C(=O)[C@@]12C | 19.9 µM | 19.5 µM |  |  |  |  | 
CC(=O)c1c(O)c(C)c(O)c2c1OC1=CC(=O)/C(=C(/C)NCCCNCCCCN)C(=O)[C@@]12C | 8.4 µM | 29.3 µM |  | 12.5 µM | 9.9 µM | 28 µM | 
CC[C@H](C)[C@H](N/C(C)=C1\C(=O)C=C2Oc3c(C(C)=O)c(O)c(C)c(O)c3[C@@]2(C)C1=O)C(=O)O | 17.4 µM |  | 56.7 µM |  | > 100 µM |  | 
CCCCCCCCCN/C(C)=C1\C(=O)C=C2Oc3c(C(C)=O)c(O)c(C)c(O)c3[C@@]2(C)C1=O | > 500 µM |  |  |  |  |  | 
CC(=O)c1c(O)c(C)c(O)c2c1OC1=CC(=O)/C(=C(/C)NCCCCCCCCN)C(=O)[C@@]12C | 2.7 µM | 3.5 µM | 7.2 µM | 8.2 µM | 5.8 µM | 5 µM | Activity (L1210 [4]): 1.7; Activity (L1210 [5]): 1.4; IC50 [6]: 8.2 µM; Activity (L1210 [7]): 42%; Activity (L1210 [8]): 48%; Activity (L1210 [9]): 37%; Activity (L1210 [10]): 38%; Activity (L1210 [11]): 1.7; IC50 (DU-145): 14 µM; Activity (L1210 [12]): 35%; Activity (L1210 [13]): 37%
CC(=O)C1=C(O)C=C2Oc3c(C(C)=O)c(O)c(C)c(O)c3C2(C)C1=O (single isomer, unassigned) [(-)-USNIC ACID] | 17.4 µM |  | 21.8 µM | 19.7 µM | 51.7 µM |  | IC50 [6]: 35.1 µM; IC50 (DU-145): 45.9 µM
CC(=O)C1=C(O)C=C2Oc3c(C(C)=O)c(O)c(C)c(O)c3[C@@]2(C)C1=O [(+)-USNIC ACID] | 26.4 µM | 31.3 µM | 52.8 µM | 19.5 µM | 105 µM | 30 µM | Activity (L1210 [14]): 38%; IC50 [6]: 23 µM; Activity (L1210 [15]): 21.9; Activity (L1210 [16]): 33%; Activity (L1210 [17]): 30%; Activity (L1210 [18]): 7.4; Activity (L1210 [19]): 35%; Activity (L1210 [20]): 3.4; Activity (L1210 [21]): 32%; Activity (L1210 [22]): 42%; IC50 (DU-145): 57.4 µM
COc1cc([C@@H]2c3cc4c(cc3[C@@H](O[C@@H]3O[C@@H]5CO[C@@H](C)O[C@H]5[C@H](O)[C@H]3O)[C@H]3COC(=O)[C@H]23)OCO4)cc(OC)c1O [ETOPOSIDE] | 0.5 µM |  | 4.9 µM | 0.5 µM |  |  | IC50 [6]: 4 µM; Activity (L1210 [23]): 19.5; Activity (L1210 [24]): 53%; Activity (L1210 [25]): 47%; IC50 (DU-145): 1.5 µM
NCCCCN [PUTRESCINE] | > 100 µM | > 100 µM |  |  |  | > 100 µM | 
NCCCCNCCCN [SPERMIDINE] | > 100 µM | > 100 µM |  |  |  | > 100 µM | 
NCCCNCCCCNCCCN [SPERMINE] | 54.5 µM | > 100 µM |  |  |  | > 100 µM | 
